Source: patent publication US9611249B2, “1H-indazole-3-carboxamide compounds as glycogen synthase kinase 3 beta inhibitors” (AZIENDE CHIMICHE RIUNITE ANGELINI FRANCESCO A.C.R.A.F. …, priority 2012, dated 2017)
Counter-ions that a name gives are not always drawn.

molecular target: T1, human GSK-3β (Homo sapiens (Human), UniProt P49841); assay: GSK-3β LanthaScreen TR-FRET Eu Kinase binding and displacement assay; details: compounds 16 to 41, LanthaScreen TR-FRET binding and displacement assay, five concentrations 100 μM to 10 nM
Method: In a second assay, the same compounds were assayed at five concentrations ranging from 100 μM to 10 nM with ten-fold dilutions in duplicate. Compounds 1 to 15 were tested using the same first assay, compounds 16 to 41 were tested in another assay based on the binding and displacement of AlexaFluor® 647 labeled, ATP-competitive Kinase inhibitor scaffold using LanthaScreen™ TR-FRET technology Eu Kinase assay packet according to manufacturer's instruction (Life Technologies, Italy).
(§1) The IC50 values (concentration causing a half maximal inhibition of control specific activity), reported in table 4, were determined by non-linear regression analysis of the inhibition curves generated with mean replicate values using Hill equation curve fitting.

T1 sequence (P49841 whole entry): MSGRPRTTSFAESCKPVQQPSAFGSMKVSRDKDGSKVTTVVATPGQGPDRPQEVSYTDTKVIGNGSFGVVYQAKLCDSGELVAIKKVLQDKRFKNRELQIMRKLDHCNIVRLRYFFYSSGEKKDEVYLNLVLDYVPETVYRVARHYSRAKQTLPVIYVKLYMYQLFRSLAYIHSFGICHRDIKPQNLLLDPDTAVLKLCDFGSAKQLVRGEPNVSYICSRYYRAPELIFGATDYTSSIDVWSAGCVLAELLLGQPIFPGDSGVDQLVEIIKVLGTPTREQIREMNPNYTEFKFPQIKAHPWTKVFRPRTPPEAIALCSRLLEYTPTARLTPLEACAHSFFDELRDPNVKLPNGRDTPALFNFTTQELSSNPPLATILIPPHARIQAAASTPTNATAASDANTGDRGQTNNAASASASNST

Structure (SMILES) | IC50 [µM]
CCCC(=O)NCCCN1CCC(CNC(=O)c2n[nH]c3ccc(OC)cc23)CC1 [Compound 37, N-({1-[3-(butanoylamino)propyl]piperidin-4-yl}methyl)-5-methoxy-1H-indazole-3-carboxamide] | 0.97
O=C(O)CN1CCC(CNC(=O)c2n[nH]c3ccc(C4=CCOCC4)cc23)CC1 [Compound 33, {4-[({[5-(3,6-dihydro-2H-pyran-4-yl)-1H-indazol-3-yl]carbonyl}amino)methyl]piperidin-1-yl}acetic acid] | 1.04
CCC(=O)NCCCN1CCC(CNC(=O)c2n[nH]c3ccc(OC)cc23)CC1 [Compound 39, 5-methoxy-N-({1-[3-(propanoylamino)propyl]piperidin-4-yl}methyl)-1H-indazole-3-carboxamide] | 0.95
CC(C)c1ccc2[nH]nc(C(=O)NCC3CCN(CC(=O)O)CC3)c2c1 [Compound 32, {4-[({[5-(propan-2-yl)-1H-indazol-3-yl]carbonyl}amino)methyl]piperidin-1-yl} acetic acid] | 3.91
CC#CC(=O)NCCCN1CCC(CNC(=O)c2n[nH]c3ccc(OC)cc23)CC1 [Compound 40, N-({1-[3-(but-2-ynoylamino)propyl]piperidin-4-yl}methyl)-5-methoxy-1H-indazole-3-carboxamide] | 0.88
COc1ccc2[nH]nc(C(=O)NCC3CCN(CCCNC(=O)c4ccccc4)CC3)c2c1 [Compound 36, 5-methoxy-N-[(1-{3-[(phenylcarbonyl)amino]propyl}piperidin-4-yl)methyl]-1H-indazole-3-carboxamide] | 3.42
O=C(O)CN1CCC(CNC(=O)c2n[nH]c3ccc(-c4cccc(Cl)c4Cl)cc23)CC1 [Compound 27, {4-[({[5-(2,3-dichlorophenyl)-1H-indazol-3-yl]carbonyl}amino)methyl]piperidin-1-yl}acetic acid hydrate] | 0.1
O=C(O)CN1CCC(CNC(=O)c2n[nH]c3ccc(C4CCCCC4)cc23)CC1 [Compound 34, [4-({[(5-cyclohexyl-1H-indazol-3-yl)carbonyl]amino}methyl)piperidin-1-yl] acetic acid] | 1.07
CCCCCc1ccc2[nH]nc(C(=O)NCC3CCN(CC(=O)O)CC3)c2c1 [Compound 35, [4-({[(5-pentyl-1H-indazol-3-yl)carbonyl]amino}methyl)piperidin-1-yl] acetic acid] | 2.04
O=C(NCC1CCNCC1)c1n[nH]c2ccc(Br)cc12 [Compound 25b, 5-Bromo-N-(piperidin-4-ylmethyl)-1H-indazole-3-carbox-amide hydrochloride] | 0.53
Cc1noc(C)c1-c1ccc2[nH]nc(C(=O)NCC3CCN(CC(=O)O)CC3)c2c1 [Compound 26, {4-[({[5-(3,5-Dimethylisoxazol-4-yl)-1H-indazol-3-yl]carbonyl}amino)methyl]piperidin-1-yl}acetic acid hydrate] | 0.91
CCOc1cc(F)c(F)cc1-c1ccc2[nH]nc(C(=O)NCC3CCN(CCOC)CC3)c2c1 [Compound 18, 5-(2-ethoxy-4,5-difluorophenyl)-N-{[1-(2-methoxyethyl)piperidin-4-yl]methyl}-1H-indazole-3-carboxamide] | 1.06
COc1cncc(-c2ccc3[nH]nc(C(=O)NCC4CCN(CC(=O)O)CC4)c3c2)c1 [Compound 30, {4-[({[5-(5-methoxypyridin-3-yl)-1H-indazol-3-yl]carbonyl}amino)methyl]piperidin-1-yl}acetic acid] | 0.02
O=C(O)CN1CCC(CNC(=O)c2n[nH]c3ccc(-c4cccc(F)c4)cc23)CC1 [Compound 28, {4-[({[5-(3-fluorophenyl)-1H-indazol-3-yl]carbonyl}amino)methyl]piperidin-1-yl} acetic acid hydrate] | 0.11
C/C=C/C(=O)NCCCN1CCC(CNC(=O)c2n[nH]c3ccc(OC)cc23)CC1 [Compound 38, N-[(1-{3-[(2E)-but-2-enoylamino]propyl}piperidin-4-yl)methyl]-5-methoxy-1H-indazole-3-carboxamide] | 0.78
COCCN1CCC(CNC(=O)c2n[nH]c3ccc(-c4ccccc4C)cc23)CC1 [Compound 16, N-{[1-(2-methoxyethyl)piperidin-4-yl]methyl}-5-(2-methylphenyl)-1H-indazole-3-carboxamide] | 0.58
O=C(O)CN1CCC(CNC(=O)c2n[nH]c3ccc(-c4cncnc4)cc23)CC1 [Compound 25, {4-[({[5-(Pyrimidin-5-yl)-1H-indazol-3-yl]carbonyl}amino)methyl]piperidin-1-yl}acetic acid hydrate] | 0.22
COc1ccc2[nH]nc(C(=O)NCC3CCN(CCCC(=O)O)CC3)c2c1 [Compound 24, 4-[4-({[(5-methoxy-1H-indazol-3-yl)carbonyl]amino}methyl)piperidin-1-yl] butanoic acid] | 1.03

molecular target: T1, human GSK-3β; assay: Activity on human GSK-3β, LANCE substrate phosphorylation assay; assay type: biochemical; details: 10 μM, in duplicate, first screening assay
Method: Activity on human GSK-3β was assessed using the following methods (according to Meijer et al., Chem. Biol., 2003-10:1255-1266).
In a first screening assay, compounds were tested in duplicate at a concentration of 10 μM.
Human recombinant enzyme GSK-3β was incubated for 90 minutes at 22° C. in the presence of compounds or vehicle in a reaction buffer containing ATP plus 100 nM unphosphorylated specific substrate peptide (Ulight-[…] K-amide). Substrate phosphorylation was measured by LANCE technology (PerkinElmer, Conn., USA).
In a second assay, the same compounds were assayed at five concentrations ranging from 100 μM to 10 nM with ten-fold dilutions in duplicate.
as §1

Structure (SMILES) | inhibition at 10 µM [%]
O=C(O)CN1CCC(CNC(=O)c2n[nH]c3cc(O)c(Br)cc23)CC1 [Compound 41, [4-({[(5-bromo-6-hydroxy-1H-indazol-3-yl)carbonyl]amino}methyl)piperidin-1-yl] acetic acid] | 71

same assay, conditions: compounds 1 to 15, LANCE assay, five concentrations 100 μM to 10 nM

Structure (SMILES) | IC50 [µM]
COCCN1CCC(CNC(=O)c2n[nH]c3ccc(-c4ccc(O)cc4)cc23)CC1 [Compound 11, 5-(4-hydroxyphenyl)-N-{[1-(2-methoxyethyl)piperidin-4-yl]methyl}-1H-indazole-3-carboxamide] | 0.89
COCCN1CCC(CNC(=O)c2n[nH]c3ccc(-c4ccc(OC)nc4)cc23)CC1 [Compound 15, N-{[1-(2-methoxyethyl)piperidin-4-yl]methyl}-5-(6-methoxypyridin-3-yl)-1H-indazole-3-carboxamide] | 0.05
COCCN1CCC(CNC(=O)c2n[nH]c3ccc(-c4cncc(OC)c4)cc23)CC1 [Compound 10, N-{[1-(2-methoxyethyl)piperidin-4-yl]methyl}-5-(5-methoxypyridin-3-yl)-1H-indazole-3-carboxamide] | 0.03
COCCN1CCC(CNC(=O)c2n[nH]c3ccc(-c4ccc(OC)cc4)cc23)CC1 [Compound 12, N-{[1-(2-methoxyethyl)piperidin-4-yl]methyl}-5-(4-methoxyphenyl)-1H-indazole-3-carboxamide] | 0.56
COCCN1CCC(CNC(=O)c2n[nH]c3ccc(-c4cnccc4OC)cc23)CC1 [Compound 5, N-{[1-(2-methoxyethyl)piperidin-4-yl]methyl}-5-(4-methoxypyridin-3-yl)-1H-indazole-3-carboxamide] | 0.05
COCCN1CCC(CNC(=O)c2n[nH]c3ccc(-c4ccc(C)nc4)cc23)CC1 [Compound 7, N-{[1-(2-methoxyethyl)piperidin-4-yl]methyl}-5-(6-methylpyridin-3-yl)-1H-indazole-3-carboxamide] | 0.06
COCCN1CCC(CNC(=O)c2n[nH]c3ccc(-c4ccccc4)cc23)CC1 [Compound 9, N-{[1-(2-methoxyethyl)pipendin-4-yl]methyl}-5-phenyl-1H-indazole-3-carboxamide] | 0.2
COCCN1CCC(CNC(=O)c2n[nH]c3ccc(-c4ccccc4F)cc23)CC1 [Compound 6, 5-(2-fluorophenyl)-N-{[1-(2-methoxyethyl)piperidin-4-yl]methyl}-1H-indazole-3-carboxamide] | 0.07
COCCN1CCC(CNC(=O)c2n[nH]c3ccc(-c4cccnc4)cc23)CC1 [Compound 4, N-{[1-(2-methoxyethyl)piperidin-4-yl]methyl}-5-(pyridin-3-yl)-1H-indazole-3-carboxamide] | 0.03
